{"source": "patent US7608407B2", "about": "“Fluorescence polarization assay for determining histidine decarboxylase activity” (Boehringer Ingelheim Pharmaceuticals, Inc., priority 2004, dated 2009)", "key": {"[1]": {"molecular_target": "T1, human HDC (Homo sapiens, UniProt P19113)", "T1 construct": "containing the first 1431 bases (amino acid residues 1-477) of HDC; made in house; host or cells: Sf9 insect cells (baculovirus, pDEST 20)", "T1 sequence (P19113 1-477 S148Q)": "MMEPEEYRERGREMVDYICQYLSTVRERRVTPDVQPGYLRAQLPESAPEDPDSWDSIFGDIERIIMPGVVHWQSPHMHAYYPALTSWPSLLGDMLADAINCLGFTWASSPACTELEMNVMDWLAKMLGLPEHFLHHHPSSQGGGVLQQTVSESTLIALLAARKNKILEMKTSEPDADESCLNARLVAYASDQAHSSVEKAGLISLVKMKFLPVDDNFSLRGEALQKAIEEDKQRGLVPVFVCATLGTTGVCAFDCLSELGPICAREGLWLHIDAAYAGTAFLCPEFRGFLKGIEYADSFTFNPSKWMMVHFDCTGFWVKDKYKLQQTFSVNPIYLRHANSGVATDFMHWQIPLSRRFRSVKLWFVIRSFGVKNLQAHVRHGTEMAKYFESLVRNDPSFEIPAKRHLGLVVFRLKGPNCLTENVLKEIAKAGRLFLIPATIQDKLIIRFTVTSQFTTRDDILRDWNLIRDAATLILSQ", "test": "Histidine decarboxylase fluorescence polarization standard assay", "assay_type": "biochemical", "conditions": "standard assay: 30 nM HDC, 600 μM histidine, 90 minutes at 37° C.; read-out: IC50 for inhibition of HDC", "procedure": "(§1) In the standard assay, HDC, diluted to 90 nM in HDC Buffer plus 0.9 mM DTT and 99 μM PLP, was added to a black opaque 384-well plate in 20 μL. Test compound in HDC Buffer plus 6% DMSO or buffer alone was added to the plate in 10 μL. 36 nM FITC-histidine and 3.6 mM histidine were combined in FP Buffer and transferred to the plate in 10 μL. Finally, 90 nM […] antibody was added in 20 μL of FP Buffer. Thus, the final concentrations in the assay were: HDC 30 nM, FITC-histidine 6 nM, histidine 600 μM, anti-histamine antibody 30 nM, DMSO 1%. The plate was incubated at 37° C. for 90 minutes. The fluorescence polarization signal was read on an LJL Analyst (Molecular Devices, Sunnyvale, Calif.) with excitation at 485 nm, emission at 530 nm, a fluorescein dichroic mirror at 505 nm and G factor set to 1. A 96-well plate version of the assay, used in assay development, was performed as described above with twice the volumes indicated for 384-well plates."}, "[2]": {"molecular_target": "anti-histamine antibody D22.12", "test": "Displacement of FITC-histamine binding to the anti-histamine antibody by competitor ligand", "parameters": "species or system mice", "procedure": "Triplicate determinations in a 96-well plate were performed as described in the Methods, with 6 nM FITC-histamine, 50 nM anti-histamine antibody, and the indicated concentration of competitor ligand.\nas §1\nWe first determined the affinity of the probe for the antibody and the specificity of the interaction, both of which are crucial to constructing a robust assay in a competitive mode. […] The probe concentration was held at 6 nM and the antibody concentration varied over approximately 3 logs. […] Probe and antibody concentrations were held constant at 6 and 50 nM, respectively, while the concentrations of histamine and histidine were varied as shown."}, "[3]": {"molecular_target": "T2, HDC (Mus musculus, UniProt P23738)", "T2 sequence (P23738 1-662)": "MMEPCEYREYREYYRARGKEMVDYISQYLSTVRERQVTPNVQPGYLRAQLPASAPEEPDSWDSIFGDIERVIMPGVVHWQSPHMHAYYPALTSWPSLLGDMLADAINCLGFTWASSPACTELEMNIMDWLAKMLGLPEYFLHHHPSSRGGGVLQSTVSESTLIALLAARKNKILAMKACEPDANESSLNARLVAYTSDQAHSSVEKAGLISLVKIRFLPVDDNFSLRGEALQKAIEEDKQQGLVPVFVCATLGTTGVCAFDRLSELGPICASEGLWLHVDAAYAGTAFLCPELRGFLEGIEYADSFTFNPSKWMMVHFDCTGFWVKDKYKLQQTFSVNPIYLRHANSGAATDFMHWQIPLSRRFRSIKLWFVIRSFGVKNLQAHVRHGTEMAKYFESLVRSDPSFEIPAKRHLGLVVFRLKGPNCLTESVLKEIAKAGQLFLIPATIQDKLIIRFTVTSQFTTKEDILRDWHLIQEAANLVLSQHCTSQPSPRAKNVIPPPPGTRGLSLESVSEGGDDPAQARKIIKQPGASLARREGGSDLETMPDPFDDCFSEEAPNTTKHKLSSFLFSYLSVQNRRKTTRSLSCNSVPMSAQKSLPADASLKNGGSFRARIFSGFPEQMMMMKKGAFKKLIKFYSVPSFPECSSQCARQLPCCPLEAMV", "conditions": "Watabe et al 1992; read-out: Reported Km; cited from earlier work"}, "[4]": {"molecular_target": "anti-histamine antibody D22.12", "conditions": "read-out: Kd (dissociation constant) of probe for antibody; FITC-histamine at 6 nM, antibody concentration varied over approximately 3 logs", "procedure": "as §1\nWe first determined the affinity of the probe for the antibody and the specificity of the interaction, both of which are crucial to constructing a robust assay in a competitive mode. […] The probe concentration was held at 6 nM and the antibody concentration varied over approximately 3 logs. […]"}}, "data": [{"compound": "COC(=O)C(N)Cc1c[nH]cn1", "note": "(stereo not shown) [methyl ester histidine]", "values": [{"measurement": "IC50", "setting": "[1]", "result": 7.7, "unit": "µM"}]}, {"compound": "N[C@@](CF)(Cc1cnc[nH]1)C(=O)O", "note": "[α-fluoromethyl histidine]", "values": [{"measurement": "IC50", "setting": "[1]", "result": 1.4, "unit": "µM"}]}, {"compound": "NCCc1c[nH]cn1", "note": "[Histamine, histamine]", "values": [{"measurement": "IC50", "setting": "[2]; 6 nM FITC-histamine, 50 nM anti-histamine antibody, read-out: IC50 for competition with the probe for antibody binding", "result": 135, "unit": "µM"}, {"measurement": "Selectivity for histamine over histidine", "setting": "[2]; FP assay", "result": "> 100", "unit": "fold"}]}, {"compound": "N[C@@H](Cc1c[nH]cn1)C(=O)O", "note": "[Histidine, L-Histidine]", "values": [{"measurement": "Km", "setting": "[3]", "result": "200 to 400", "unit": "µM"}, {"measurement": "Competition with FITC-histamine for binding to the antibody", "setting": "[2]; 6 nM FITC-histamine, 50 nM antibody, over the 5 log range examined", "result": "unable to compete"}]}, {"compound": "N-[3′,6′-dihydroxy-3-oxospiro[isobenzofuran-[(3H), 9′-[9H]xanthene-5(or 6)-yl]-N′-[2-(1H-imidazol-4-yl)ethyl]-2,4-dimethylthiourea, disodium salt [FITC-histamine]", "values": [{"measurement": "Kd", "setting": "[4]", "result": 0.0039, "unit": "µM"}]}]}
